We go through 4 compounds from paper PMC5908784, “Extracellular loops 2 and 3 of the calcitonin receptor selectively modify agonist binding and efficacy” (Biochemical Pharmacology, 2018).

Structures are written as SMILES. Numbering of substitutions follows the chain as printed. Where a SMILES comes first, the peptide text is derived from it. Bridges are numbered along the chain shown (N, C = ends).

Experiment in all cases: ERK1/2 phosphorylation
Holding throughout (type): cell-based

Experiment [1] has as its target T1, hCTR S364A (Homo sapiens, UniProt P30988, S364A).
T1 construct: c-Myc (N); expressed in transfected cells
T1 sequence (P30988 25-474 S364A): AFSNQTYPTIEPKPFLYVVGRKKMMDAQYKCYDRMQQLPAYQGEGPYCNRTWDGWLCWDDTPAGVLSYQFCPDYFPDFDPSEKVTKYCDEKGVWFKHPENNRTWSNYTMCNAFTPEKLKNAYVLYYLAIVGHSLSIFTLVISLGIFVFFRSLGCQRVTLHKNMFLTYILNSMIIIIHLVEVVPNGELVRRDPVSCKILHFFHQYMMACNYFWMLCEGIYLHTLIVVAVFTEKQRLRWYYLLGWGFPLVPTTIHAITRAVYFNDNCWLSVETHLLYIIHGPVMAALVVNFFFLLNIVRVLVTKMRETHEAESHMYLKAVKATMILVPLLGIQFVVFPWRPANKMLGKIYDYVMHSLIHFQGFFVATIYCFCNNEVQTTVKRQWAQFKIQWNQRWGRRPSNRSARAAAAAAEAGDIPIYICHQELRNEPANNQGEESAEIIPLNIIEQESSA
To be noted: CV1-FlpIn cells, mean ± S.E.M.; for Emax: pERK maximal response; for EC50: pERK, three-parameter logistic fit. The procedure: (§1) Cells (2.5 × 10^4 cells/well) were seeded into 96-well culture plates and incubated overnight. […] Data were normalized to the maximal response elicited by 10% FBS determined at 6 min.
(§2) Data were corrected for radioligand occupancy using the Cheng-Prusoff equation in Prism; as such data are reported as pKi. Emax and EC50 were estimated from concentration-response curves using with a 3-parameter logistic equation in Prism (v7). These values are a composite of functional affinity, efficacy and stimulus response coupling. […] Significance was accepted at P < 0.05.

Experiment [2] has as its target T2, hCTR T280A (Homo sapiens, UniProt P30988, T280A).
T2 construct: expressed in transfected cells
T2 sequence (P30988 25-474 T280A): T1 sequence (P30988 25-474 S364A) with T256A, A340S
To be noted: CV1-FlpIn cells, mean ± S.E.M.; for Emax: pERK maximal response; for EC50: pERK, three-parameter logistic fit. Here is the method:
as §1, §2

The target in experiment [3] is T3, hCTR L291A (Homo sapiens, UniProt P30988, L291A).
T3 construct: expressed in transfected cells
T3 sequence (P30988 25-474 L291A): T1 sequence (P30988 25-474 S364A) with L267A, A340S
To be noted: CV1-FlpIn cells, mean ± S.E.M.; for Emax: pERK maximal response. The procedure:
as §1, §2

Experiment [4] concerns the target T4, hCTR L297A (Homo sapiens, UniProt P30988, L297A).
T4 construct: c-Myc (N); expressed in transfected cells
T4 sequence (P30988 25-474 L297A): T1 sequence (P30988 25-474 S364A) with L273A, A340S
To be noted: CV1-FlpIn cells, mean ± S.E.M.; for Emax: pERK maximal response; for EC50: pERK, three-parameter logistic fit. The procedure:
as §1, §2

The target of experiment [5] is T5, hCTR P360A (Homo sapiens, UniProt P30988, P360A).
T5 construct: expressed in transfected cells
T5 sequence (P30988 25-474 P360A): T1 sequence (P30988 25-474 S364A) with P336A, A340S
To be noted: CV1-FlpIn cells, mean ± S.E.M.; for Emax: pERK maximal response. Here is the method:
as §1, §2

The mark [6] stands for this setting: pERK, three-parameter logistic fit.

As usually defined, the Emax is the maximal effect, on the per cent scale that the assay sets. For the compound `CC(C)C[C@H](NC(=O)[C@H](CCCCN)NC(=O)CNC(=O)[C@H](CC(C)C)NC(=O)[C@@H](NC(=O)[C@@H]1CSSC[C@H](N)C(=O)N[C@@H](CO)C(=O)N[C@@H](CC(N)=O)C(=O)N[C@@H](CC(C)C)C(=O)N[C@@H](CO)C(=O)N[C@@H]([C@@H](C)O)C(=O)N1)C(C)C)C(=O)N[C@@H](CO)C(=O)N[C@@H](CCC(N)=O)C(=O)N[C@@H](CCC(=O)O)C(=O)N[C@@H](CC(C)C)C(=O)N[C@@H](Cc1c[nH]cn1)C(=O)N[C@@H](CCCCN)C(=O)N[C@@H](CC(C)C)C(=O)N[C@@H](CCC(N)=O)C(=O)N[C@H](C(=O)N[C@@H](Cc1ccc(O)cc1)C(=O)N1CCC[C@H]1C(=O)N[C@@H](CCCNC(=N)N)C(=O)N[C@H](C(=O)N[C@@H](CC(N)=O)C(=O)N[C@H](C(=O)NCC(=O)N[C@@H](CO)C(=O)NCC(=O)N[C@H](C(=O)N1CCC[C@H]1C(N)=O)[C@@H](C)O)[C@@H](C)O)[C@@H](C)O)[C@@H](C)O` [sCT], the maximal response (Emax) in experiment [1] worked out at 106 ± 4%; in experiment [2], 158 ± 12%; in experiment [3] it was 107 ± 5%; in experiment [4], 68 ± 4%; in experiment [5], 115 ± 9%.

For orientation: EC50 means the concentration giving half of the maximal effect. Higher therefore signals lower potency in that assay. As to `CSCC[C@H](NC(=O)CNC(=O)[C@H](CO)NC(=O)[C@H](Cc1ccccc1)NC(=O)[C@H](CCCNC(=N)N)NC(=O)[C@H](Cc1c[nH]cn1)NC(=O)[C@H](Cc1ccccc1)NC(=O)[C@H](CC(N)=O)NC(=O)[C@H](CC(N)=O)NC(=O)[C@H](CC(C)C)NC(=O)[C@H](CC(N)=O)NC(=O)[C@H](CCCNC(=N)N)NC(=O)[C@H](Cc1c[nH]c2ccccc12)NC(=O)[C@H](Cc1ccc(O)cc1)NC(=O)[C@H](C)NC(=O)[C@H](CO)NC(=O)[C@H](CC(C)C)NC(=O)[C@@H](NC(=O)[C@@H]1CSSC[C@H](N)C(=O)N[C@@H](CO)C(=O)N[C@@H](CC(N)=O)C(=O)N[C@@H](CC(C)C)C(=O)N[C@@H](CO)C(=O)N[C@@H]([C@@H](C)O)C(=O)N1)C(C)C)C(=O)NCC(=O)N[C@@H](Cc1ccccc1)C(=O)NCC(=O)N1CCC[C@H]1C(=O)N[C@@H](CCC(=O)O)C(=O)N[C@H](C(=O)N1CCC[C@H]1C(N)=O)[C@@H](C)O` [pCT] (H-CSNLSTCVLSAYWRNLNNFHRFSGMGFGPETP-NH2; disulfide 1-7), the maximal response (Emax) in experiment [1] amounted to 127 ± 12%; in experiment [2], 160 ± 10%; in experiment [3], 77 ± 5%; in experiment [4] it was 59 ± 4%; in experiment [5], 59 ± 7%. For the same compound, the concentration giving a half-maximal response (EC50) in experiment [1] is 3.63 nM; in experiment [2] it was 2.04 nM; in experiment [3] (setting [6]), 9.55 nM; in experiment [4] it was 0.977 nM; in experiment [5] (setting [6]) it was 39.8 nM.

On to `CC(C)C[C@H](NC(=O)[C@H](CC(N)=O)NC(=O)[C@H](CC(N)=O)NC(=O)[C@H](CO)NC(=O)[C@H](CO)NC(=O)[C@H](CCCNC(=N)N)NC(=O)[C@@H](NC(=O)[C@H](CC(C)C)NC(=O)[C@H](Cc1ccccc1)NC(=O)[C@H](CC(N)=O)NC(=O)[C@H](C)NC(=O)[C@H](CC(C)C)NC(=O)[C@H](CCCNC(=N)N)NC(=O)[C@H](CCC(N)=O)NC(=O)[C@@H](NC(=O)[C@H](C)NC(=O)[C@@H]1CSSC[C@H](NC(=O)[C@@H](N)CCCCN)C(=O)N[C@@H](CC(N)=O)C(=O)N[C@@H]([C@@H](C)O)C(=O)N[C@@H](C)C(=O)N[C@@H]([C@@H](C)O)C(=O)N1)[C@@H](C)O)C(C)C)C(=O)NCC(=O)N1CCC[C@H]1C(=O)N[C@H](C(=O)N[C@@H](CC(C)C)C(=O)N1CCC[C@H]1C(=O)N1CCC[C@H]1C(=O)N[C@H](C(=O)N[C@@H](CC(N)=O)C(=O)N[C@H](C(=O)NCC(=O)N[C@@H](CO)C(=O)N[C@@H](CC(N)=O)C(=O)N[C@H](C(=O)N[C@@H](Cc1ccc(O)cc1)C(N)=O)[C@@H](C)O)C(C)C)[C@@H](C)O)C(C)C` [rAmy], for which the Emax in experiment [1] was 66 ± 9%; in experiment [2] it was 110 ± 11%; in experiment [3], 41 ± 4%; in experiment [4], 49 ± 6%.

For the compound `CC(C)C[C@H](NC(=O)CNC(=O)[C@H](C)NC(=O)[C@H](CC(C)C)NC(=O)[C@H](CCCNC(=N)N)NC(=O)[C@H](Cc1cnc[nH]1)NC(=O)[C@@H](NC(=O)[C@@H](NC(=O)[C@@H]1CSSC[C@H](NC(=O)[C@H](C)N)C(=O)N[C@@H](CC(=O)O)C(=O)N[C@@H]([C@@H](C)O)C(=O)N[C@@H](C)C(=O)N[C@@H]([C@@H](C)O)C(=O)N1)C(C)C)[C@@H](C)O)C(=O)N[C@@H](CC(C)C)C(=O)N[C@@H](CO)C(=O)N[C@@H](CCCNC(=N)N)C(=O)N[C@@H](CO)C(=O)NCC(=O)NCC(=O)N[C@H](C(=O)N[C@H](C(=O)N[C@@H](CCCCN)C(=O)N[C@@H](CC(N)=O)C(=O)N[C@@H](CC(N)=O)C(=O)N[C@@H](Cc1ccccc1)C(=O)N[C@H](C(=O)N1CCC[C@H]1C(=O)N[C@H](C(=O)N[C@@H](CC(N)=O)C(=O)N[C@H](C(=O)NCC(=O)N[C@@H](CO)C(=O)N[C@@H](CCCCN)C(=O)N[C@@H](C)C(=O)N[C@@H](Cc1ccccc1)C(N)=O)C(C)C)[C@@H](C)O)C(C)C)C(C)C)C(C)C` [hαCGRP], the Emax in experiment [1] came to 54 ± 6%; in experiment [2], 106 ± 12%; in experiment [4] it was 73 ± 12%. Further, the concentration for a half-maximal effect (EC50) in experiment [1] is 10.7 nM; in experiment [2] it was 53.7 nM; in experiment [4], 97.7 nM.
